In ChEMBL document CHEMBL1201862, “PubChem BioAssay data set” (2004):
The source made the active and inactive calls. Rule as the data show it, for most assays here: actives have a measured EC50 and inactives only a lower limit.

Target: T1, Protein skinhead-1 (Caenorhabditis elegans, UniProt P34707)
T1 sequence (P34707 whole entry): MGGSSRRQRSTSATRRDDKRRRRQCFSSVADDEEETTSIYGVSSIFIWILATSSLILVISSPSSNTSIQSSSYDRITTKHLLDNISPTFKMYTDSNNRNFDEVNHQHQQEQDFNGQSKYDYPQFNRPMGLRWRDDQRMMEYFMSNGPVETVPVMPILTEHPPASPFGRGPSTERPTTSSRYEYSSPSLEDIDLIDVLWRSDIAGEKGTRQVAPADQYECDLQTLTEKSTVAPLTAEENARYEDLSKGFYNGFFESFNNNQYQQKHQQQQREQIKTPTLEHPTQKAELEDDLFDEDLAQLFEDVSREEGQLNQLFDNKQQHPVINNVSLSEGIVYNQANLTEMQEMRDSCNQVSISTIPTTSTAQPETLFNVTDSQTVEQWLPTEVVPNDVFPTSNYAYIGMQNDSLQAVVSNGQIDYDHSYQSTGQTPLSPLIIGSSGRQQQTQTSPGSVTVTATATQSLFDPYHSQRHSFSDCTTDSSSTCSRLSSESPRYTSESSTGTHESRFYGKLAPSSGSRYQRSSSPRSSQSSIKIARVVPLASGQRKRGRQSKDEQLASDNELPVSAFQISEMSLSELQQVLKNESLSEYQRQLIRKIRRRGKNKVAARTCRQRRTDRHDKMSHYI
Type: functional
Conditions: not given

SMILES	IC50
Brc1ccc(-c2nc(-c3ccccc3)no2)o1	14.1 µM (active)
c1ccc(OCc2cc(-c3ccccc3)no2)cc1	68.7 µM (inactive)
Cc1onc(-c2c(F)cccc2Cl)c1C(=O)Nc1nc2ccccc2[nH]1	> 100 µM (inactive)
COc1cc2c(cc1OC)[C@@H](NC(=O)CCc1ccccc1)[C@H](OCc1ccccc1)C2	> 100 µM (inactive)
C(/C=C/c1ccccn1)=C\c1ccccc1	50.8 µM (inactive)
COc1cccc(-n2cnnn2)c1	> 100 µM (inactive)
CN(C)C(CNC(=O)c1cccc(S(=O)(=O)N2CCN(c3ccc(F)cc3)CC2)c1)c1ccccc1 (stereo not drawn)	63.4 µM (inactive)
Cc1ccc(-c2nc3ccc(Br)cn3c2Cc2ccccc2C(F)(F)F)cc1	75.5 µM (inactive)
COC(=O)C1C2CC3c4[nH]c5cc(OC)ccc5c4CCN3CC2CC(OC(=O)CC(C)=O)C1OC (stereo not drawn)	> 100 µM (inactive)
O=C(Nc1ccccc1Cl)c1cc(C2CCCN(C(=O)OCCF)C2)on1 (stereo not drawn)	> 100 µM (inactive)
O=C1NC[C@H](Cc2ccccc2)N(C[C@@H]2CCCN2C[C@H](Cc2ccc(O)cc2)N2C[C@H](Cc3ccccc3)N(CC3CCCCCC3)C(=O)C2=O)C1=O	> 100 µM (inactive)

Target: Luciferin 4-monooxygenase (Photinus pyralis, UniProt P08659)
Sequence (P08659 whole entry): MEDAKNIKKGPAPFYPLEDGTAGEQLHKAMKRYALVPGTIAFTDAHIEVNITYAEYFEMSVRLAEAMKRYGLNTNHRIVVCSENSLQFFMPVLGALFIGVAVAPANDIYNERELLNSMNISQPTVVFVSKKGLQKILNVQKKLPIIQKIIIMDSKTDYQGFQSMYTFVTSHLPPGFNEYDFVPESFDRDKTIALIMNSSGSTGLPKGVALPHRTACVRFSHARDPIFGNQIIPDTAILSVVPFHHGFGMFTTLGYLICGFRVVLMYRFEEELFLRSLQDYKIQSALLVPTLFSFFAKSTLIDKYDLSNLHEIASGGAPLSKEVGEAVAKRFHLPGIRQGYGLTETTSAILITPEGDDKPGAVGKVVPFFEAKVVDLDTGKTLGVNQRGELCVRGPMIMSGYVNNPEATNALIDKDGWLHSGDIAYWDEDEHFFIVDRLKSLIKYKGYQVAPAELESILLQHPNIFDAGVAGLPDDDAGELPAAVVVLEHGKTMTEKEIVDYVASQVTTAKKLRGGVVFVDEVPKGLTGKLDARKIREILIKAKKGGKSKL
Assay: firefly luciferase enzyme inhibitors, dose response, biochemical, luminescence (AID 1891)
Conditions: not given

SMILES	EC50
Cc1ccc(Cl)c(OCC(=O)Nc2ccccc2C(=O)NC2CC2)c1	> 112 µM (not active)
CCCCCN(C(=O)CCC(=O)OCC(=O)N1C(C)CCCC1C)c1c(N)n(CCCC)c(=O)[nH]c1=O (stereo not drawn)	> 112 µM (not active)
Cc1cc(NC(=O)CSCC(=O)Nc2ccccc2N2CCCCC2)no1	> 112 µM (not active)
CC(=O)c1cnc2c(-c3ccc(Cl)cc3)c(C)nn2c1C	> 112 µM (not active)
O=C(/C=C/c1ccc([N+](=O)[O-])cc1)NCc1cccs1	> 112 µM (not active)
Cn1nc(C(=O)Nc2nc3ccc(S(C)(=O)=O)cc3s2)ccc1=O	3.18 µM (active)
COc1ccc(-c2nc(C[S+]([O-])CC(=O)NCc3ccco3)c(C)o2)cc1 (stereo not drawn)	> 112 µM (not active)
Cc1ccc2c(c1)COc1c3ccc(C(=O)N4CCOCC4)cc3nn1-2	29.6 µM (active)
Cc1ccc(S(=O)(=O)/N=C(\c2ccc(F)cc2)n2c(C)nc3ccccc32)cc1	> 112 µM (not active)

Target: T2, Protein RecA (Mycobacterium tuberculosis, UniProt P9WHJ3)
T2 sequence (P9WHJ3 whole entry): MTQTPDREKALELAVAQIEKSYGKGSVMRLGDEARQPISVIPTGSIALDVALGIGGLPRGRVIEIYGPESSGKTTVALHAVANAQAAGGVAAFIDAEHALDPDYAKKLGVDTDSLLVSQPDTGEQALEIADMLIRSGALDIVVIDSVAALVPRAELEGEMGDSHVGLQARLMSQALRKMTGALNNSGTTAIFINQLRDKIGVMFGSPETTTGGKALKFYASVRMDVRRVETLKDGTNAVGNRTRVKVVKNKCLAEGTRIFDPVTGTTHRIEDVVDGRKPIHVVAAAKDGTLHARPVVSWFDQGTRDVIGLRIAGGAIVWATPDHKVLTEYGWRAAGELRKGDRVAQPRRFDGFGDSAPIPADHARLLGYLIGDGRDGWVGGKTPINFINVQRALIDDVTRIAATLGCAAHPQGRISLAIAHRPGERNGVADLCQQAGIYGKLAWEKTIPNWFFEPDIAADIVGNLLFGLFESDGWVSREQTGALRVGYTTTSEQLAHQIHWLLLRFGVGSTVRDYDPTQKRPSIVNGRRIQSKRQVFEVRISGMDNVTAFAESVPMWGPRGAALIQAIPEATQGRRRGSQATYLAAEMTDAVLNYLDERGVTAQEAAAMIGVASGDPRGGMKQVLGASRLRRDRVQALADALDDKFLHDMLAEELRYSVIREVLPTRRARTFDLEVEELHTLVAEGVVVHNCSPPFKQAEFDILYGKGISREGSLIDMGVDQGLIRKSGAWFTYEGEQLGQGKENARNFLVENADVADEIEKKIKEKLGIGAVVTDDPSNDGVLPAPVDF
Assay: Fluorescence Cell-Free Homogeneous Dose Retest to Identify Inhibitors of RecA-Intein Splicing Activity. [Related pubchem assays (depositor defined):AID2097, AID2223, AID489010, AID492950]
Type: functional
Conditions: not given

SMILES	EC50
N#CC(C#N)=C(C#N)c1ccc(Nc2ccccc2)cc1	2.49 µM (active)
O=C(NC1CCCC1)C(c1ccc(F)cc1)N(Cc1ccc(Cl)cc1)C(=O)CCl (stereo not drawn)	0.965 µM (active)
CCCc1n[nH]c2c1C(c1ccc(OC(=O)c3ccco3)cc1)C(C#N)=C(N)O2 (stereo not drawn)	5.22 µM (active)
CCOC(=O)CSc1nc2sc3c(c2c(=O)n1C1CCCCC1)CCN(C)C3	15.2 µM (active)
CCOC(=O)/C(C#N)=C\c1ccc(O)c(OC)c1	9.54 µM (active)
Cc1ccc2c(c1)c1nnc(SCC(=O)Nc3ccc(N(C)C)cc3)nc1n2CC(=O)O	0.483 µM (active)
COCC(C)NC(=O)CCS(=O)(=O)c1nc(-c2ccc(OC)cc2)cc(C(F)(F)F)n1 (stereo not drawn)	6.72 µM (active)
Cn1cnc([N+](=O)[O-])c1Oc1ccc2ccccc2c1	12.7 µM (active)
COc1ccc(-c2[nH]nc3c2C(c2ccccc2OC(=O)N2CCOCC2)C(C#N)=C(N)O3)cc1 (stereo not drawn)	3.91 µM (active)
COc1ccc(CC(=O)N/N=C(/C)CC(=O)N(C)c2ccccc2)cc1	9.23 µM (active)

Target: T3, Rac GTPase-activating protein 1 (Homo sapiens, UniProt Q9H0H5)
T3 sequence (Q9H0H5 whole entry): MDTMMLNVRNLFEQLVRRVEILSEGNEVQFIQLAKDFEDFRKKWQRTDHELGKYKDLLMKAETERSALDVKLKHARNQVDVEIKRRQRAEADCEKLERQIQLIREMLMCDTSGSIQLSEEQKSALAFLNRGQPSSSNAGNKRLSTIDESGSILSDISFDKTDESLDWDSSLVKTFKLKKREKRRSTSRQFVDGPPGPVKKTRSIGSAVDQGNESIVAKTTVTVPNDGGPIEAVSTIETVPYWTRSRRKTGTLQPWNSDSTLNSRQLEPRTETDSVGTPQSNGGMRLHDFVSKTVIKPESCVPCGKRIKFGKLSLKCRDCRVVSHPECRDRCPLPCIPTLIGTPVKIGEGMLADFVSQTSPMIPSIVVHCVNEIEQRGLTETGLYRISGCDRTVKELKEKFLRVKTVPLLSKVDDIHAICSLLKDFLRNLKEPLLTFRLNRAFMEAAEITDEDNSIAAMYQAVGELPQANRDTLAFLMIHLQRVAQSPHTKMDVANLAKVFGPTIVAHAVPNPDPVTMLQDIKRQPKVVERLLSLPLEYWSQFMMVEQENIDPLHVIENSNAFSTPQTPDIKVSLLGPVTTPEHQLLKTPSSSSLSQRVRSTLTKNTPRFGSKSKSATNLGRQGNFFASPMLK
Assay: MgcRacGAP GTPase-activating activity inhibitors, confirmation, biochemical, ADP Hunter fluorescence, primary and confirmatory (AID 624330)
Type: functional
Conditions: not given

SMILES	IC50
CCOC(=O)/C(C#N)=C\c1ccc(O)c(OC)c1	48.9 µM (active)

System: not listed separately
Assay: cytotoxicity toward NIH3T3 fibroblasts, dose response, counter-screen, cell-based, ATP luminescence, mouse fibroblasts (AID 2010);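 also: cells exposed to compound for about 90 hours before reading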
Type: functional
Conditions: not given

SMILES	EC50
CCOC(=O)CSc1nc2sc3c(c2c(=O)n1C1CCCCC1)CCN(C)C3	> 30 µM (not active)

System: not listed separately
Assay: inhibitors of intracellular T. cruzi replication, confirmation, NIH3T3 host cells, beta-gal luminescence (AID 2044);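 also: intracellular parasites grown in NIH/3T3 mouse fibroblasts as host cells; luminescent beta-galactosidase reporter signal from transgenic T. cruzi replicating inside host cells; inhibitors lower the luminescence signal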
Type: functional, cell-based
Conditions: not given

SMILES	EC50
CCOC(=O)CSc1nc2sc3c(c2c(=O)n1C1CCCCC1)CCN(C)C3	1.43 µM (active)

System: not listed separately
Assay: Luminescence Cell-Based Dose Confirmation HTS to Identify Inhibitors of Platelet Dense Granule Release. [Related pubchem assays: 1663 (Primary HTS), 1678 (Summary of Project)]
Type: functional
Conditions: not given

SMILES	EC50
Cc1ccc(Cl)c(OCC(=O)Nc2ccccc2C(=O)NC2CC2)c1	> 112 µM (not active)
CCCCCN(C(=O)CCC(=O)OCC(=O)N1C(C)CCCC1C)c1c(N)n(CCCC)c(=O)[nH]c1=O (stereo not drawn)	> 112 µM (not active)
Cc1cc(NC(=O)CSCC(=O)Nc2ccccc2N2CCCCC2)no1	> 112 µM (not active)
CC(=O)c1cnc2c(-c3ccc(Cl)cc3)c(C)nn2c1C	78.7 µM (active)
O=C(/C=C/c1ccc([N+](=O)[O-])cc1)NCc1cccs1	57.2 µM (active)
Cn1nc(C(=O)Nc2nc3ccc(S(C)(=O)=O)cc3s2)ccc1=O	7.45 µM (active)
COc1ccc(-c2nc(C[S+]([O-])CC(=O)NCc3ccco3)c(C)o2)cc1 (stereo not drawn)	27.9 µM (active)
Cc1ccc2c(c1)COc1c3ccc(C(=O)N4CCOCC4)cc3nn1-2	20.9 µM (active)
Cc1ccc(S(=O)(=O)/N=C(\c2ccc(F)cc2)n2c(C)nc3ccccc32)cc1	> 112 µM (not active)

System: not listed separately
Assay: Luminescence Cell-Based Dose Retest to Confirm Inhibitors of Cancer Stem Cells. [Related pubchem assays (depositor defined):AID2717, AID2721]
Type: functional
Conditions: Homo sapiens

SMILES	AC50
N#CC(C#N)=C(C#N)c1ccc(Nc2ccccc2)cc1	2.54 µM (active)

Target: T4, Replicative DNA helicase DnaB (Mycobacterium tuberculosis, UniProt P9WMR3)
T4 sequence (P9WMR3 whole entry): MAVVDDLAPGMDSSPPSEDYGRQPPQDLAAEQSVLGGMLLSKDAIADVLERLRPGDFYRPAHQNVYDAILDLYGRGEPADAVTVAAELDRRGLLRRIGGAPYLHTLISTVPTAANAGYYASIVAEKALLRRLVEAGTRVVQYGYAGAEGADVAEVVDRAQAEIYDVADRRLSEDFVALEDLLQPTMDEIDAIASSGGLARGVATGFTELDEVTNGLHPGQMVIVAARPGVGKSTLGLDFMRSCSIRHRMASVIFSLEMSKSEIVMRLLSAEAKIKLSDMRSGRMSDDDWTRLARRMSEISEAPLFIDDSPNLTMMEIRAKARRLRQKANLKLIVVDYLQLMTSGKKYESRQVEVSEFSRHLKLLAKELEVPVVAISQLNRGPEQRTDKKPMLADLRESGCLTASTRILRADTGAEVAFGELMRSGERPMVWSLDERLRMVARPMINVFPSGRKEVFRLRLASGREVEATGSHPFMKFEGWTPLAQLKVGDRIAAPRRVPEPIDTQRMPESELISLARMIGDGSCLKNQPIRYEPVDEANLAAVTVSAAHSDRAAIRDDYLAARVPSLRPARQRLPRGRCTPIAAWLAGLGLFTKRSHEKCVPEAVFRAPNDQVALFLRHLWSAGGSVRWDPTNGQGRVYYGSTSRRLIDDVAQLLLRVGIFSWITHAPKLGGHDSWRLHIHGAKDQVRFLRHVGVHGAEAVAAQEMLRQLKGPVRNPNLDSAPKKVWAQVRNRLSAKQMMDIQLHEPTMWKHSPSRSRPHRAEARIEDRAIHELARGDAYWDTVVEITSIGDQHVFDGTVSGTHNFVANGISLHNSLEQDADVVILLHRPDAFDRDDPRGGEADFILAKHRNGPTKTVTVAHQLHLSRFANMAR
Assay: DnaB intein splicing inhibitors, dose response, biochemical, cell-free fluorescence (AID 449749)
Type: functional
Conditions: not given

SMILES	AC50
N#CC(C#N)=C(C#N)c1ccc(Nc2ccccc2)cc1	> 380 µM (inactive)
O=C(NC1CCCC1)C(c1ccc(F)cc1)N(Cc1ccc(Cl)cc1)C(=O)CCl (stereo not drawn)	9.46 µM (active)
CCCc1n[nH]c2c1C(c1ccc(OC(=O)c3ccco3)cc1)C(C#N)=C(N)O2 (stereo not drawn)	3.41 µM (active)
CCOC(=O)CSc1nc2sc3c(c2c(=O)n1C1CCCCC1)CCN(C)C3	> 380 µM (inactive)
CCOC(=O)/C(C#N)=C\c1ccc(O)c(OC)c1	27.2 µM (active)
Cc1ccc2c(c1)c1nnc(SCC(=O)Nc3ccc(N(C)C)cc3)nc1n2CC(=O)O	92.5 µM (active)
COCC(C)NC(=O)CCS(=O)(=O)c1nc(-c2ccc(OC)cc2)cc(C(F)(F)F)n1 (stereo not drawn)	12.5 µM (active)
Cn1cnc([N+](=O)[O-])c1Oc1ccc2ccccc2c1	31.9 µM (active)
COc1ccc(-c2[nH]nc3c2C(c2ccccc2OC(=O)N2CCOCC2)C(C#N)=C(N)O3)cc1 (stereo not drawn)	11.2 µM (active)
COc1ccc(CC(=O)N/N=C(/C)CC(=O)N(C)c2ccccc2)cc1	29.3 µM (active)
